For one data set, the system named is Akt. Briefly: Western blot after siAkt or GSK690693C treatment in LNCaP cells. The class given is cell-based, human. On the procedure: Twenty-four hours after culturing in 10 cm dishes at 7×10^5 cells per dish, Hsp27 siRNA (siHsp27) or scrambled siRNA (Scr) duplexes were transfected into cells. Briefly, the RNA duplex was diluted in Opti-MEN® serum-free medium and Oligofectamin (Invitrogen-Life Technologies). After 20 min, cells were transfected at 37? for 4-6 h and then were placed in standard medium. Forty-eight hours after transfection, cells were harvested and were analyzed in each experiment. To knockdown Akt, Akt1 siRNA (siAkt) duplexes (Cell signaling) were used. Twenty-four hours after transfection for 24 h, cells were harvested and then were analyzed as well. An siRNA duplex corresponding to the human Hsp27 site (sequence of one strand 5′-[…]-3′, SEQ ID NO: 2; Dharmacon, Lafayette, Colo.) was used. […]
Proteins (20-40 μg/lane) extracted in RIPA buffer from cells, were electrophoresed in SDS-polyacrylamide gels (SDS/PAGE) and transferred to PDVF membranes (Milipore, Bedford, Mass.) by a wet transfer method. […] Bands were detected by using an enhanced chemiluminescence Western blotting analysis system (Amersham Life Science, Arlington Heights, Ill.).
LNCaPHsp27 and LNCaP with empty vector (LNCaPmock) cells were assessed 24 h after culture. Cell lysates were collected 24 hours after culture and bands were detected with the indicated antibodies by Western blot assay. […]

The subject of a further data set is PC-3 cells. Briefly: Combination treatment with siHsp27 and LY-294002 in PC-3 cells. In kind it is cell-based, human. On the procedure:
LY-294002 (2-(4-morpholinyl)-8-phenyl-4H-1-benzopyran-4-one) is a selective phosphatidylinositol 3-kinase (PI3K) inhibitor. Combination treatment with siHsp27 and LY-294002 treatment was assessed in PC-3 cells.

The test system of data set [1] is hsp27. The conditions noted are these: Tanaka et al., Int J Gynecol Cancer 2004; cited from earlier work.
Data set [2] deals with Hsp27. The note with it: preclinical studies, cited from earlier work.

For the compound `CCn1c(-c2nonc2N)nc2c(C#CC(C)(C)O)ncc(OC[C@H]3CCCNC3)c21` [GSK690693C], in the data set with Akt, the “phospho-Akt level (Western blot)” value was “up-regulation of phospho-Akt”; the “phospho-GSK-3B and phospho-PEA15 levels (Western blot)” value was “dose-dependent decrease of phospho-GSK-3B and phospho-PEA15”.

With `O=c1cc(N2CCOCC2)oc2c(-c3ccccc3)cccc12` [LY-294002, 2-(4-morpholinyl)-8-phenyl-4H-1-benzopyran-4-one], the PTEN expression entry in the data set on PC-3 cells was “reduced PTEN expression”. Also, the “effect on growth inhibition by Hsp27 knockdown” value in the data set on PC-3 cells (combination with siHsp27) was “reduced the growth inhibitory effect by Hsp27 knockdown in dose-dependent manner”.

Turning to `CC(=O)O[C@H]1C(=O)[C@@]2(C)[C@H]([C@H](OC(=O)c3ccccc3)[C@]3(O)C[C@H](OC(=O)[C@H](O)[C@@H](NC(=O)c4ccccc4)c4ccccc4)C(C)=C1C3(C)C)[C@]1(OC(C)=O)CO[C@@H]1C[C@@H]2O` [Paclitaxel], the hsp27 expression entry in the data set on hsp27 [1] was “inhibitor of hsp27 expression”.

On to “OGX-427: antisense oligonucleotide targeting hsp27, gggacgcggc gctcggtcat, SEQ ID No. 1, described in U.S. Pat. No. 7,101,991 (antisense GGGACGCGGCGCTCGGTCAT; listed as DNA, chemistry not given here; listed as Homo sapiens)”, for which the chemosensitization result in the data set with Hsp27 [2] (combination with cytotoxic drugs) is on record as “acts as a chemosensitizer in combination with several cytotoxic drugs including docetaxel”. In addition, the anti-tumor activity result in the data set with Hsp27 [2] (single agent) is “has single agent anti-tumor activity”. Besides, in the data set on Hsp27 [2], the “apoptosis in human cancer cell lines” value is reported as “induces apoptosis in several human cancer cell lines” and the “levels of Hsp27” value is “significantly decreases levels of Hsp27”.

The values above are taken from patent publication US20090281166A1, “Treatment of Cancer by Inhibition of HSP27” (THE UNIVERSITY OF BRITISH COLUMBIA, priority 2008, published 2009).
